Test results reported in patent publication US11976061B2, “Preparation of benzimidazolone derivatives as novel diacylglyceride O-acyltransferase 2 inhibitors” (Merck Sharp & Dohme LLC, priority 2020, dated 2024).

Biological target: T1, human DGAT2 (hDGAT2) (Homo sapiens, UniProt Q96PD7)
T1 construct: made in house; host or cells: Sf-9 insect cells (baculovirus), membrane fraction
T1 sequence (Q96PD7 1-388): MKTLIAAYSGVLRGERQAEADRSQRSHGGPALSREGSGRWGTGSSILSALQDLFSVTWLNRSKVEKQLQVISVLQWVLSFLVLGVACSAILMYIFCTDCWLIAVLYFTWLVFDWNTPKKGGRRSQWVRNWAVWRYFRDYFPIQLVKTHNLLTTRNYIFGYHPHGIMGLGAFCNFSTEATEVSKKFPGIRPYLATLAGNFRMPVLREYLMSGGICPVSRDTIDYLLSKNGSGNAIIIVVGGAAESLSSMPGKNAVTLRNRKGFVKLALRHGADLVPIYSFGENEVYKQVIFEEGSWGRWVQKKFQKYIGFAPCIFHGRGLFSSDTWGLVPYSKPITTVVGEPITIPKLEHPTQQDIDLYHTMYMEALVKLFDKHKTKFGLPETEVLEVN
Experiment: DGAT2 Enzymatic Activity Assay
Format: biochemical
Settings: membrane prep of Sf-9 cells expressing hDGAT2; 25 μM diolein, 5 μM 13C oleoyl-CoA; 13C18-triolein by LC/MS/MS; read-out: DGAT2 IC50
Description: Insect Cell Expression and Membrane Preparation
Sf-9 insect cells were maintained in Grace's insect cell culture medium with 10% heated-inactivated fetal bovine serum, 1% Pluronic F-68 and 0.14 μg/ml Kanamycine sulfate at 27° C. in a shaker incubator. After infection with untagged baculovirus expressing human DGAT2 (hDGAT2) at multiplicity of infection (MOI) 3 for 48 hours, cells were harvested. Cell pellets were suspended in buffer containing 10 mM Tris-HCl pH 7.5, 1 mM EDTA, 250 mM sucrose and Complete Protease Inhibitor Cocktail (Sigma Aldrich), and sonicated on ice. Cell debris were removed by centrifugation at 2000×g for 15 minutes. Membrane fractions were isolated by ultracentrifugation (100,000×g), resuspended in the same buffer, and frozen (−80° C.) for later use. The protein concentration was determined with the Pierce™ BCA Protein Assay Kit (Thermo Fisher Scientific). Expression of protein levels was analyzed by immunoblotting with rabbit anti-DGAT2 antibody (Abcam, ab102831) and donkey anti-rabbit IgG H&L Alexa Fluor® 647 (Abcam, ab150075) followed by detection using Typhoon FLA9000 (GE Healthcare).
LC/MS/MS analyses were performed using Thermal Fisher's LX4-TSQ Vantage system. This system consists of an Agilent binary high-performance liquid chromatography (HPLC) pump and a TSQ Vantage triple quadrupole MS/MS instrument. For each sample, 2 μL samples from the top organic layer of in-plate liquid-liquid extraction were injected onto a Thermo Betabasic C4 column (2.1 mm×20 mm, 5 μm particle size). The samples were then eluted using the following conditions; mobile phase: Isopropanol:acetonitrile/10 mM ammonium formate=50/35/15 (v/v/v), flow rate: 0.8 mL/min, temperature: 25° C. Data was acquired in positive mode using a heated electrospray ionization (HESI) interface. The operational parameters for the TSQ Vantage MS/MS instrument were a spray voltage of 3000 V, capillary temperature of 280° C., vaporizer temperature 400° C., sheath gas 45 arbitrary unit, Aux gas 10 arbitrary units, S-lens 165 and collision gas 1.0 mTorr. […] (SRM) chromatograms of ^13C18-triolein (Q1: 920.8>Q3: 621.3) and internal standard ^13C21-triolein (Q1: 923.8>Q3: 617.3) were collected for 33 sec. The peak area was integrated by Xcalibur Quan software. The ratio between the ^13C18triolein generated in the reaction and spiked in internal standard ^13C21-triolein was used to generate percentage inhibition and IC50 values. Compound percentage inhibition was calculated by the following formula: Inhibition %=1−[(compound response−low control)/(high control−low control)]×100%. Potent compounds were titrated and IC50 were calculated by 4 parameter sigmoidal curve fitting formula.
DGAT2 Enzymatic Activity Assay
DGAT2 activity was determined by measuring the amount of enzymatic product ^13C18-triolein (^13C-1,2,3-Tri(cis-9-octadecenoyl)glycerol) using the membrane prep mentioned above. The assay was carried out in ABgene 384-well assay plates in a final volume of 25 μL at rt. The assay mixture contained the following: assay buffer (100 mM Tris·Cl, pH 7.0, 20 mM MgCl2, 5% ethanol), 25 μM of diolein, 5 μM of ^13C oleoyl-CoA and 8 ng/μL of DGAT2 membrane.

| IC50 [nM] | SMILES |
| --- | --- |
| 1 | CC(n1c(=O)n(-c2cc(OC(F)(F)F)ccc2F)c2cc(F)c(C(=O)NC3(C)CCS(=O)(=O)CC3)cc21)C(C)(C)O (single isomer, unassigned) [Example 70a, 6-fluoro-1-(2-fluoro-5-(trifluoromethoxy)phenyl)-3-(3-hydroxy-3-methylbutan-2-yl)-N-(4-methyl-1,1-dioxidotetrahydro-2H-thiopyran-4-yl)-2-oxo-2,3-dihydro-1H-benzo[d]imidazole-5-carboxamide] |
| 30.4 | CC(n1c(=O)n(-c2cc(OC(F)(F)F)ccc2F)c2cc(F)c(C(=O)NC3(C)CCS(=O)(=O)CC3)cc21)C(C)(C)O (single isomer, unassigned) [Example 70b, 6-fluoro-1-(2-fluoro-5-(trifluoromethoxy)phenyl)-3-(3-hydroxy-3-methylbutan-2-yl)-N-(4-methyl-1,1-dioxidotetrahydro-2H-thiopyran-4-yl)-2-oxo-2,3-dihydro-1H-benzo[d]imidazole-5-carboxamide] |
| 71 | CC(n1c(=O)n(-c2cc(OC(F)(F)F)ccc2F)c2ccc(C(=O)NC3(C)CCS(=O)(=O)CC3)cc21)C(C)(C)O (single isomer, unassigned) [Example 71a, 1-(2-fluoro-5-(trifluoromethoxy)phenyl)-3-(3-hydroxy-3-methylbutan-2-yl)-N-(4-methyl-1,1-dioxidotetrahydro-2H-thiopyran-4-yl)-2-oxo-2,3-dihydro-1H-benzo[d]imidazole-5-carboxamide] |
| 5.4 | CC(n1c(=O)n(-c2cc(OC(F)(F)F)ccc2F)c2ccc(C(=O)NC3(C)CCS(=O)(=O)CC3)cc21)C(C)(C)O (single isomer, unassigned) [Example 71b, 1-(2-fluoro-5-(trifluoromethoxy)phenyl)-3-(3-hydroxy-3-methylbutan-2-yl)-N-(4-methyl-1,1-dioxidotetrahydro-2H-thiopyran-4-yl)-2-oxo-2,3-dihydro-1H-benzo[d]imidazole-5-carboxamide] |
| 6.4 | CC(n1c(=O)n(-c2cc(OCC(F)F)ncc2F)c2ccc(C(=O)NC3(C)CCS(=O)(=O)CC3)cc21)C(C)(C)O (single isomer, unassigned) [Example 72a, 1-(2-(2,2-difluoroethoxy)-5-fluoropyridin-4-yl)-3-(3-hydroxy-3-methylbutan-2-yl)-N-(4-methyl-1,1-dioxidotetrahydro-2H-thiopyran-4-yl)-2-oxo-2,3-dihydro-1H-benzo[d]imidazole-5-carboxamide] |
| 6.6 | CC(n1c(=O)n(-c2cc(OCC(F)F)ncc2F)c2ccc(C(=O)NC3(C)CCS(=O)(=O)CC3)cc21)C(C)(C)O (single isomer, unassigned) [Example 72b, 1-(2-(2,2-difluoroethoxy)-5-fluoropyridin-4-yl)-3-(3-hydroxy-3-methylbutan-2-yl)-N-(4-methyl-1,1-dioxidotetrahydro-2H-thiopyran-4-yl)-2-oxo-2,3-dihydro-1H-benzo[a]imidazole-5-carboxamide] |
| 2.6 | CC(n1c(=O)n(-c2cc(OCC(F)F)ccc2F)c2ccc(C(=O)NC3(C)CCS(=O)(=O)CC3)cc21)C(C)(C)O (single isomer, unassigned) [Example 73a, 1-(5-(2,2-difluoroethoxy)-2-fluorophenyl)-3-(3-hydroxy-3-methylbutan-2-yl)-N-(4-methyl-1,1-dioxidotetrahydro-2H-thiopyran-4-yl)-2-oxo-2,3-dihydro-1H-benzo[a]imidazole-5-carboxamide] |
| 6.1 | CC(n1c(=O)n(-c2cc(OCC(F)F)ncc2F)c2cc(F)c(C(=O)NC3(C)CCS(=O)(=O)CC3)cc21)C(C)(C)O (single isomer, unassigned) [Example 74a, 1-(2-(2,2-difluoroethoxy)-5-fluoropyridin-4-yl)-6-fluoro-3-(3-hydroxy-3-methylbutan-2-yl)-N-(4-methyl-1,1-dioxidotetrahydro-2H-thiopyran-4-yl)-2-oxo-2,3-dihydro-1H-benzo[d]imidazole-5-carboxamide] |
| 6.5 | CC(n1c(=O)n(-c2cc(OCC(F)F)ncc2F)c2cc(F)c(C(=O)NC3(C)CCS(=O)(=O)CC3)cc21)C(C)(C)O (single isomer, unassigned) [Example 74b, 1-(2-(2,2-difluoroethoxy)-5-fluoropyridin-4-yl)-6-fluoro-3-(3-hydroxy-3-methylbutan-2-yl)-N-(4-methyl-1,1-dioxidotetrahydro-2H-thiopyran-4-yl)-2-oxo-2,3-dihydro-1H-benzo[d]imidazole-5-carboxamide] |
| 1.5 | CC(n1c(=O)n(-c2cc(OCC(F)F)ccc2F)c2cc(F)c(C(=O)NC3(C)CCS(=O)(=O)CC3)cc21)C(C)(C)O (single isomer, unassigned) [Example 75a, 1-(5-(2,2-difluoroethoxy)-2-fluorophenyl)-6-fluoro-3-(3-hydroxy-3-methylbutan-2-yl)-N-(4-methyl-1,1-dioxidotetrahydro-2H-thiopyran-4-yl)-2-oxo-2,3-dihydro-1H-benzo[d]imidazole-5-carboxamide] |
| 2.4 | CC(n1c(=O)n(-c2cc(OCC(F)F)ccc2F)c2cc(F)c(C(=O)NC3(C)CCS(=O)(=O)CC3)cc21)C(C)(C)O (single isomer, unassigned) [Example 75b, 1-(5-(2,2-difluoroethoxy)-2-fluorophenyl)-6-fluoro-3-(3-hydroxy-3-methylbutan-2-yl)-N-(4-methyl-1,1-dioxidotetrahydro-2H-thiopyran-4-yl)-2-oxo-2,3-dihydro-1H-benzo[d]imidazole-5-carboxamide] |
| 80 | CC(n1c(=O)n(-c2cccc(OC(F)(F)C(F)F)c2)c2ccc(C(=O)NC3(C)CS(=O)(=O)C3)cc21)C(C)(C)O (single isomer, unassigned) [Example 76a, 3-(3-hydroxy-3-methylbutan-2-yl)-N-(3-methyl-1,1-dioxidothietan-3-yl)-2-oxo-1-(3-(1,1,2,2-tetrafluoroethoxy)phenyl)-2,3-dihydro-1H-benzo[d]imidazole-5-carboxamide] |
| 7.9 | CC(n1c(=O)n(-c2cccc(OC(F)(F)C(F)F)c2)c2ccc(C(=O)NC3(C)CS(=O)(=O)C3)cc21)C(C)(C)O (single isomer, unassigned) [Example 76b, 3-(3-hydroxy-3-methylbutan-2-yl)-N-(3-methyl-1,1-dioxidothietan-3-yl)-2-oxo-1-(3-(1,1,2,2-tetrafluoroethoxy)phenyl)-2,3-dihydro-1H-benzo[d]imidazole-5-carboxamide] |
| 5.6 | CC(n1c(=O)n(-c2cccc(OC(F)(F)C(F)F)c2)c2ccc(C(=O)NC3(C)CCS(=O)(=O)CC3)cc21)C(C)(C)O (single isomer, unassigned) [Example 77a, 3-(3-hydroxy-3-methylbutan-2-yl)-N-(4-methyl-1,1-dioxidotetrahydro-2H-thiopyran-4-yl)-2-oxo-1-(3-(1,1,2,2-tetrafluoroethoxy)phenyl)-2,3-dihydro-1H-benzo[d]imidazole-5-carboxamide] |
| 9.8 | CC(n1c(=O)n(-c2cccc(OC(F)(F)C(F)F)c2)c2ccc(C(=O)NC3(C)CCS(=O)(=O)CC3)cc21)C(C)(C)O (single isomer, unassigned) [Example 77b, 3-(3-hydroxy-3-methylbutan-2-yl)-N-(4-methyl-1,1-dioxidotetrahydro-2H-thiopyran-4-yl)-2-oxo-1-(3-(1,1,2,2-tetrafluoroethoxy)phenyl)-2,3-dihydro-1H-benzo[d]imidazole-5-carboxamide] |
